Test results from US20250084080A1, “CRYSTALLINE AND SALT FORMS OF AN NLRP3 INHIBITOR” (BioAge Labs, Inc., priority 2023, published 2025).
≈ marks a conversion by molar mass, not a printed value.

Assays:
Assay type in all cases: physicochemical
[1] = Competitive equilibration and water activity experiments; settings: water activity 0 to 0.4 at 5° C. and 0 to 0.6 at 25° C., equilibration 5 days
Experimental: Relative stability of the hydrate Pattern A and the anhydrate Pattern B was investigated by competitive equilibration and water activity experiments at 5° C. and 25° C.

[2] = Hygroscopicity by dynamic vapor sorption (DVS) at 25° C.; settings: for Desorp. (%) / Sorp. (%): DVS 25° C.
How it was run: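 About 5–10 mg sample was cycled 40-0-95-0-40% RH in 10% steps at 25 °C with water vapour. Equilibrium criterion was 0.002 %/min dm/dt, with a minimum 60 min stability duration and a maximum 360 min per stage.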

[3] = Bulk stability (solid state, 1 week; HPLC, XRPD, IC, color); design: key to CL (color): A: no change of color; B: slight discoloration; C: medium discoloration; D: strong discoloration; settings: for Bulk (HPLC) Purity / CL (color): Solid state
Experimental: Bulk stability of free form Pattern B was evaluated at 25° C./92.5% RH in an open container, at 40° C./75% RH in an open container and at 60° C. in a tight container over 1 week.

[4] = Solubility at 37° C. in buffers and biorelevant media, XRPD of residual solid; settings: for solubility at 2 h / solubility at 24 h: thermodynamic from solid
How it was run: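 Solids equivalent to 10 mg anhydrous free form were stirred in 5 mL of each medium (pH 1.2 HCl, pH 4.5 acetate, pH 6.8 phosphate, water, FaSSGF, FaSSIF-v1, FeSSIF-v1, HPMC/Pluronic in acetate) at 37 °C, 400 rpm. Sampled at 2 h and 24 h; supernatant analyzed by HPLC plus pH, 24 h residual solid by XRPD.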

[5] = 25° C./92.5% RH open, 40° C./75% RH open, 60° C. tight container
[6] = aqueous buffer, pH 4.5 acetate buffer (50 mM), 37° C.
[7] = aqueous buffer, pH 6.8 phosphate buffer (50 mM), 37° C.
[8] = aqueous with cosolvent or surfactant or cyclodextrin, 2% HPMC + 1% Pluronic F68 in pH 4.5 acetate buffer (50 mM), 37° C.
[9] = fassgf or other biorelevant, FaSSGF, pH 1.6, 37° C.
[10] = simulated gastric fluid, pH 1.2 HCl buffer, 37° C.

**Q.** For `CCOc1cc(C(=O)N(C)Cc2cnc(CO)c3cn[nH]c23)ccc1-c1cc(F)cc(F)c1` [Free form Pattern A, 2-ethoxy-3′,5′-difluoro-N-((4-(hydroxymethyl)-1H-pyrazolo[4,3-c]pyridin-7-yl)methyl)-N-methyl-[1,1′-biphenyl]-4-carboxamide], which Form conversion [1] is on record?
**A.** Its Form conversion is “converted to anhydrate Pattern B”.

**Q.** What about the “Desorp. (%)” value ([2]; 0% RH, 1st desorption) of the same compound?
**A.** Its value is 0.01%.

**Q.** And the “Sorp. (%)” value ([2]; 0% RH, 2nd sorption)?
**A.** Its value is 0.01%.

**Q.** What about the “Desorp. (%)” value ([2]; 10% RH, 1st desorption) of the same compound?
**A.** Its value is 3.59%.

**Q.** And the “Sorp. (%)” value ([2]; 10% RH, 2nd sorption)?
**A.** The value was 0.09%.

**Q.** And the “Desorp. (%)” value ([2]; 20% RH, 1st desorption)?
**A.** Its value is 3.74%.

**Q.** And the “Sorp. (%)” value ([2]; 20% RH, 2nd sorption)?
**A.** Its value is 3.45%.

**Q.** And the “Desorp. (%)” value ([2]; 30% RH, 1st desorption)?
**A.** The value was 3.79%.

**Q.** And the “Sorp. (%)” value ([2]; 30% RH, 2nd sorption)?
**A.** The value was 3.78%.

**Q.** What about the “Desorp. (%)” value ([2]; 40% RH, 1st desorption) of the same compound?
**A.** Its value is 3.83%.

**Q.** What about the “Sorp. (%)” value ([2]; 40% RH, 1st sorption) of the same compound?
**A.** Its value is 3.87%.

**Q.** And the “Desorp. (%)” value ([2]; 40% RH, 2nd desorption)?
**A.** The value was 3.83%.

**Q.** And the “Sorp. (%)” value ([2]; 40% RH, 2nd sorption)?
**A.** The value was 3.82%.

**Q.** What about the “Desorp. (%)” value ([2]; 50% RH, 1st desorption) of the same compound?
**A.** Its value is 3.93%.

**Q.** And the “Sorp. (%)” value ([2]; 50% RH, 1st sorption)?
**A.** Its value is 3.90%.

**Q.** What about the “Desorp. (%)” value ([2]; 50% RH, 2nd desorption) of the same compound?
**A.** Its value is 3.92%.

**Q.** What about the “Sorp. (%)” value ([2]; 50% RH, 2nd sorption) of the same compound?
**A.** Its value is 3.87%.

**Q.** And the “Desorp. (%)” value ([2]; 60% RH, 1st desorption)?
**A.** Its value is 4.00%.

**Q.** What about the “Sorp. (%)” value ([2]; 60% RH, 1st sorption) of the same compound?
**A.** Its value is 3.94%.

**Q.** What about the “Desorp. (%)” value ([2]; 60% RH, 2nd desorption) of the same compound?
**A.** The value was 3.99%.

**Q.** What about the “Sorp. (%)” value ([2]; 60% RH, 2nd sorption) of the same compound?
**A.** Its value is 3.93%.

**Q.** And the “Desorp. (%)” value ([2]; 70% RH, 1st desorption)?
**A.** The value was 4.07%.

**Q.** What about the “Sorp. (%)” value ([2]; 70% RH, 1st sorption) of the same compound?
**A.** Its value is 4.01%.

**Q.** What about the “Desorp. (%)” value ([2]; 70% RH, 2nd desorption) of the same compound?
**A.** Its value is 4.06%.

**Q.** And the “Sorp. (%)” value ([2]; 70% RH, 2nd sorption)?
**A.** The value was 4.00%.

**Q.** What about the “Desorp. (%)” value ([2]; 80% RH, 1st desorption) of the same compound?
**A.** Its value is 4.17%.

**Q.** What about the “Sorp. (%)” value ([2]; 80% RH, 1st sorption) of the same compound?
**A.** The value was 4.12%.

**Q.** And the “Desorp. (%)” value ([2]; 80% RH, 2nd desorption)?
**A.** Its value is 4.15%.

**Q.** And the “Sorp. (%)” value ([2]; 80% RH, 2nd sorption)?
**A.** The value was 4.11%.

**Q.** What about the “Desorp. (%)” value ([2]; 90% RH, 1st desorption) of the same compound?
**A.** Its value is 4.35%.

**Q.** What about the “Sorp. (%)” value ([2]; 90% RH, 1st sorption) of the same compound?
**A.** Its value is 4.33%.

**Q.** What about the “Desorp. (%)” value ([2]; 90% RH, 2nd desorption) of the same compound?
**A.** Its value is 4.33%.

**Q.** And the “Sorp. (%)” value ([2]; 90% RH, 2nd sorption)?
**A.** The value was 4.30%.

**Q.** What about the “Desorp. (%)” value ([2]; 95% RH, 1st desorption) of the same compound?
**A.** The value was 4.61%.

**Q.** What about the “Sorp. (%)” value ([2]; 95% RH, 1st sorption) of the same compound?
**A.** Its value is 4.61%.

**Q.** What about the “Desorp. (%)” value ([2]; 95% RH, 2nd desorption) of the same compound?
**A.** Its value is 4.58%.

**Q.** And the “Sorp. (%)” value ([2]; 95% RH, 2nd sorption)?
**A.** Its value is 4.58%.

**Q.** What about the “Water absorbed from 40% RH to 80% RH” value ([2]; DVS at 25° C.) of the same compound?
**A.** The value was “It absorbed 0.3%”.

**Q.** And the “XRPD after DVS test” value ([2]; DVS at 25° C.)?
**A.** The value was “No form change”.

**Q.** What about the “Bulk stability, chemical and physical” value [3, 5] of the same compound?
**A.** Its value is “chemically and physically stable”.

**Q.** What about the “Degradation by HPLC” value [3, 5] of the same compound?
**A.** Its value is “no obvious degradation”.

**Q.** And the “Form change by XRPD” value [3, 5]?
**A.** The value was “no form change”.

**Q.** And the “Bulk (HPLC) Purity” value ([3]; 25° C./92.5% RH, open)?
**A.** Its value is 97.9%.

**Q.** And the “CL (color)” value ([3]; 25° C./92.5% RH, open)?
**A.** The value was “A”.

**Q.** What about the “Bulk (HPLC) Purity” value ([3]; 40° C./75% RH, open) of the same compound?
**A.** The value was 97.7%.

**Q.** What about the “CL (color)” value ([3]; 40° C./75% RH, open) of the same compound?
**A.** The value was “A”.

**Q.** And the “Bulk (HPLC) Purity” value ([3]; 60° C., closed)?
**A.** The value was 97.8%.

**Q.** What about the “CL (color)” value ([3]; 60° C., closed) of the same compound?
**A.** Its value is “A”.

**Q.** What about the “pH of supernatant at 24 h” value ([4]; 2% HPMC + 1% Pluronic F68 in pH 4.5 acetate buffer (50 mM), 37° C.) of the same compound?
**A.** Its value is “(4.6)”.

**Q.** And the “pH of supernatant at 24 h” value ([4]; FaSSGF, pH 1.6, 37° C.)?
**A.** Its value is “(1.6)”.

**Q.** And the “pH of supernatant at 24 h” value ([4]; FaSSIF-v1, pH 6.5, 37° C.)?
**A.** Its value is “(6.5)”.

**Q.** And the “pH of supernatant at 24 h” value ([4]; FeSSIF-v1, pH 5.0, 37° C.)?
**A.** Its value is “(5.0)”.

**Q.** What about the “pH of supernatant at 24 h” value ([4]; Water, 37° C.) of the same compound?
**A.** The value was “(6.3)”.

**Q.** What about the solubility at 2 h [4, 6] of the same compound?
**A.** The solubility at 2 h was 14.4 µg/mL (≈ 31.8 µM).

**Q.** What about the solubility at 24 h [4, 6] of the same compound?
**A.** The solubility at 24 h was 13.7 µg/mL (≈ 30.3 µM).

**Q.** And the solubility at 2 h [4, 7]?
**A.** Its solubility at 2 h is 4.7 µg/mL (≈ 10.4 µM).

**Q.** What about the solubility at 24 h [4, 7] of the same compound?
**A.** The solubility at 24 h was 4.3 µg/mL (≈ 9.5 µM).

**Q.** And the solubility at 2 h [4, 8]?
**A.** The solubility at 2 h was 24.4 µg/mL.

**Q.** And the solubility at 24 h [4, 8]?
**A.** Its solubility at 24 h is 34.3 µg/mL.

**Q.** And the solubility at 2 h [4, 9]?
**A.** The solubility at 2 h was 746 µg/mL (≈ 1650 µM).

**Q.** What about the solubility at 24 h [4, 9] of the same compound?
**A.** The solubility at 24 h was 616 µg/mL (≈ 1360 µM).

**Q.** And the “pH of supernatant at 24 h” value ([4]; pH 1.2 HCl buffer, 37° C.)?
**A.** The value was “(1.2)”.

**Q.** And the “pH of supernatant at 24 h” value ([4]; pH 4.5 acetate buffer (50 mM), 37° C.)?
**A.** The value was “(4.5)”.

**Q.** And the “pH of supernatant at 24 h” value ([4]; pH 6.8 phosphate buffer (50 mM), 37° C.)?
**A.** The value was “(6.8)”.

**Q.** And the solubility at 2 h [4, 10]?
**A.** The solubility at 2 h was 425 µg/mL (≈ 940 µM).

**Q.** What about the solubility at 24 h [4, 10] of the same compound?
**A.** The solubility at 24 h was 402 µg/mL (≈ 888 µM).

**Q.** What about the solubility at 2 h ([4]; FaSSIF-v1, pH 6.5, 37° C.) of the same compound?
**A.** The solubility at 2 h was 14.5 µg/mL (≈ 32 µM).

**Q.** And the solubility at 24 h ([4]; FaSSIF-v1, pH 6.5, 37° C.)?
**A.** The solubility at 24 h was 17.7 µg/mL (≈ 39.1 µM).

**Q.** What about the solubility at 2 h ([4]; FeSSIF-v1, pH 5.0, 37° C.) of the same compound?
**A.** Its solubility at 2 h is 142 µg/mL (≈ 314 µM).

**Q.** And the solubility at 24 h ([4]; FeSSIF-v1, pH 5.0, 37° C.)?
**A.** Its solubility at 24 h is 168 µg/mL (≈ 372 µM).

**Q.** And the solubility at 2 h ([4]; Water, 37° C.)?
**A.** Its solubility at 2 h is 5.6 µg/mL (≈ 12.4 µM).

**Q.** What about the solubility at 24 h ([4]; Water, 37° C.) of the same compound?
**A.** The solubility at 24 h was 4.6 µg/mL (≈ 10.2 µM).
